Measured values from publication PMC8346139, “Synthesis of New Tricyclic 1,2-Thiazine Derivatives with Anti-Inflammatory Activity” (International Journal of Molecular Sciences, 2021).
“Also recorded” adds a separate entry of the source.

Legend:
[1] = Differential scanning calorimetry (DSC) of DPPC model membranes; type: physicochemical; settings: pH 7.4, molar ratios 0.06–0.12
Source text: To investigate the interaction of the tricyclic 1,2-thiazine derivatives (Table 1) with model membranes, we used the differential scanning calorimetry (DSC) method. As a model of the phospholipid membrane, the multibilayers made of 1,2-dipalmitoyl-n-glycero-3-phosphatidylcholine (DPPC) in a buffer solution (pH 7.4) were used.
Tris-EDTA buffer solution (pH 7.4) and 1,2-dipalmitoyl-n-glycero-3-phosphatidyl- choline (DPPC) were purchased from Sigma-Aldrich, Merck KGaA, Darmstadt, Germany. None of the compounds studied were soluble in water, so their chloroform (P.P.H. STANLAB, Lublin, Poland, analytical grade) solutions were used for calorimetric experiments.
For each sample, 2 mg of phospholipid (DPPC) were dissolved in the appropriate amount of chloroform stock solution (5 mM) of the compounds studied (the compound: DPPC molar ratios in the samples were: 0.06, 0.08, 0.10, 0.12). The solvent was then evaporated under a stream of nitrogen gas. After that, the residual solvent was evacuated under vacuum (Rotary evaporator, Büchy Poland, Warsaw, Poland) for 2 h. In this process, the phospholipid was transferred onto the dry film on the inner surface of the Eppendorf tube. Samples were hydrated by 20 μL of Tris–EDTA buffer (pH 7.4). […] Then, the samples were transferred into aluminum sample pans of the Concavus® type (Netzsch GmbH & Co., Selb, Germany) and sealed. A pan of the same type, filled with 20 μL of Tris–EDTA buffer (pH 7.4), was employed as a reference. Measurements of the DPPC main phase transition were performed using the heat-flow measurement method at a heating rate of 1 °C per minute over a temperature range of 30–50 °C in a nitrogen dynamic atmosphere (25 mL/min). Data were analyzed off-line using Netzsch Proteus® 7.1.0 (Netzsch GmbH & Co., Selb, Germany) analysis software. The transition enthalpies were stated in [J/g]. The measured heat was normalized per gram of lipid. […] All samples were weighed on a Sartorius CPA225D-0CE analytical balance (Sartorius AG, Gottingen, Germany) with a resolution of 0.01 mg.

[2] = biological target: T1, human recombinant COX-2 (Homo sapiens, UniProt P35354); assay: COX colorimetric inhibitor screening assay, COX-2; settings: for Ratio: COX-2/COX-1: ratio of IC50 values COX-2/COX-1; for COX-2/COX-1 selectivity compared with meloxicam: comparison of IC50 ratios; for COX-2 inhibition effect compared with meloxicam: comparison of IC50 values
T1 sequence (P35354 18-604): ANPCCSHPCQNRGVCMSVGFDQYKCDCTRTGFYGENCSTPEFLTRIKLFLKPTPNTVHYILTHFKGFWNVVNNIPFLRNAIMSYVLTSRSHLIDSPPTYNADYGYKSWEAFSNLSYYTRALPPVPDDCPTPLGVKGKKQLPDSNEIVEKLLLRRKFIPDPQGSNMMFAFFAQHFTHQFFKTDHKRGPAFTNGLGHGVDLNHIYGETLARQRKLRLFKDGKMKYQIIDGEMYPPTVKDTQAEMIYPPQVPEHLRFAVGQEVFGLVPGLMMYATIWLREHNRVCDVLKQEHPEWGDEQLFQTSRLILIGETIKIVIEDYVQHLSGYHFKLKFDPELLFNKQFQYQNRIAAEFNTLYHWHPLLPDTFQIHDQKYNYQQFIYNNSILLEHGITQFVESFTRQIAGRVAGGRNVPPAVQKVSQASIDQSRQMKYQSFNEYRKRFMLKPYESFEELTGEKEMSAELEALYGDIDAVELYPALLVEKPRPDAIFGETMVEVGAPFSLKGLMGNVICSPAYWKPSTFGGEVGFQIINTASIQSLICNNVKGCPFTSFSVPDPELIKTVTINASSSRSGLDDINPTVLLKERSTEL
Procedure: (§2) The selectivity of the compounds for COX-1 or COX-2 was assessed by calculation of the IC50 ratios.
(§3) The compounds were dissolved in ethanol to get the final concentration of 100 µM. Each tested solution of compounds was transferred into a 96-well plate in three repetitions and then incubated for 2 min at RT with prepared reagents according to the manufacturing procedure. This assay measured the peroxidase component of COXs, which is evaluated as monitoring the oxidized form of N, N, N’, N’-tetramethyl-p-phenylenediamine (TMPD). The absorbance was measured using a VariuScan microplate reader at 590 nm. The data were calculated according to 3 steps. First, the average absorbance of all the samples was determined. Second, the absorbance of the background wells was subtracted from the absorbance of 100% of the starting COX-1 and COX-2 activity and the test compound wells.

[3] = tested on: NHDF cells; assay: MTT viability assay; type: cell-based, Human; settings: 24 h incubation; for Mitochondrial activity of NHDF cells: 10 µM and 50 µM, compared to control; for Mitochondrial activity of NHDF cells / Cytotoxic effect on NHDF cells: MTT; for Cytotoxic effect on NHDF cells: 10, 50 and 100 µM
Procedure: The viability of the Normal Human Dermal Fibroblasts (NHDF) cells was assessed after 24 h incubation with 10, 50 and 100 µM tested compounds in MTT assay. […] The less than 30% decrease in culture viability was observed only in concentration of 100 µM for compound 6b in comparison to control (i.e., no cytotoxic potential of tested compound). […] Thus, all new compounds were directed to further research.
The study was carried out using the NHDF cell line obtained from ATCC (Manassas, VA, USA). These cells are commonly used to determine the cytotoxicity of new compounds. Cells were cultured at 37 °C in a humidified 5% CO2/95% air atmosphere incubator and passaged twice a week.
(§1) The 1,2-thiazine derivatives were dissolved in DMSO to a stock concentration of 10 mM. All prepared stock solutions were stored at −20 °C for up to 6 months. For the experiment, the compounds tested were used in the concentration range of 10, 50 and 100 μM. […] The abovementioned tested compounds were tested on NHDF cells.
The viability of the cells was assessed after 24 h incubation with 10–100 µM tested compounds in MTT assay. After incubation, cell culture with a 1 mg/mL solution of MTT for 2 h at 37 °C, the formazan crystals were dissolved in isopropanol. The plates were then shaken for 30 min, and the absorbance was measured at 570 nm using VariuScan microplate reader.

[4] = biological target: T2, ovine COX-1 (Ovis aries, UniProt P05979); assay: COX colorimetric inhibitor screening assay, COX-1
T2 sequence (P05979 25-600): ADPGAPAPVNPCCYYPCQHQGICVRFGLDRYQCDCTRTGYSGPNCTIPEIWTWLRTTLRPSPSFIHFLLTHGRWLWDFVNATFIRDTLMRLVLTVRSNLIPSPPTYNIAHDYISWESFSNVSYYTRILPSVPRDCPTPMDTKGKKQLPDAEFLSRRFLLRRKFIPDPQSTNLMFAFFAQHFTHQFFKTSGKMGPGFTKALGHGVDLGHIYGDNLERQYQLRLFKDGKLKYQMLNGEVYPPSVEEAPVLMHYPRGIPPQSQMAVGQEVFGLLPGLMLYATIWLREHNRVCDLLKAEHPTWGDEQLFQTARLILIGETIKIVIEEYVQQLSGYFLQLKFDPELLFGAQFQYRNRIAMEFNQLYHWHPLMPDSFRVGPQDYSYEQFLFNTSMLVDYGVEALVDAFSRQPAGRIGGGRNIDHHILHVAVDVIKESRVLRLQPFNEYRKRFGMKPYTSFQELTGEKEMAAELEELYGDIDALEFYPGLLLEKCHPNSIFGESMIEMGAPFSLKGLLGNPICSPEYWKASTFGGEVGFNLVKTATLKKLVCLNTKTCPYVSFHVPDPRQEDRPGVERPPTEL
Procedure: as §2, §3

[5] = tested on: NHDF cells; assay: DCF-DA assay of reactive oxygen species (ROS); type: cell-based, Human; settings: 1 h treatment; 10, 50 and 100 µM; compared to control
Procedure: The level of reactive oxygen species (ROS) was evaluated in DCF-DA assay and nitric oxide (NO) in Griess assay, on NHDF cells. […] This increase may be due to the normal cellular activity due to the increased cell numbers, probably resulting from proliferation.
as §1
Levels of reactive oxygen species (ROS) and nitric oxide (NO) were evaluated in DCF-DA (2′,7′-dichlorofluorescein diacetate) and Griess (cat. No. G7921; Thermo Fisher Scientific, Waltham, MA, USA) assays, respectively. In these assays, the cells were treated with tested compounds only for 1 h. After that time, the 50 µL of supernatant were transferred into new plates to assess the NO level. The remaining supernatant was removed, the cell culture was washed, and the 25 µM DCF-DA solution was added for 1 h at 37 °C. […] The plates with DCF-DA solution were analyzed with the Varioskan LUX microplate reader (λex = 485 nm and λem = 535 nm). The NO level was analyzed by the measurement of the absorbance at 548 nm using VariuScan microplate reader.

Compound | melting point [°C] | Effect on DPPC gel-liquid crystalline phase transition parameters (Tm, T½, ΔH) [1] | IC50 [2] [µM] | Ratio: COX-2/COX-1 [2] | Mitochondrial activity of NHDF cells [3] | IC50 [4] [µM] | COX-2/COX-1 selectivity compared with meloxicam [2] | COX-2 inhibition effect compared with meloxicam [2] | Cytotoxic effect on NHDF cells [3] | Level of reactive oxygen species (ROS) [5] | Decrease in culture viability ([3]; 100 µM, in comparison to control)
O=C1C2=C(c3ccc(Cl)cc3)OCCCN2S(=O)(=O)c2ccccc21 [Compound 6c, 1-(4-chlorophenyl)-7,7-dioxo-4,5-dihydro-3H-[1,4]oxazepino[4,3-b][1,2]benzothiazin-12-one] | 168 to 170 | most pronounced effects | 94.1 | 1.05 | statistically significant increase | 89.8 | – | – | – | – | –
O=C(C1=C(O)c2ccccc2S(=O)(=O)N1)c1ccccc1 [Compound 4a] | – | – | 54.6 | 0.6 | statistically significant increase | 91.2 | higher COX-2/COX-1 selectivity than for meloxicam | stronger COX-2 inhibition effect than the meloxicam | no cytotoxic effect was observed | statistically significant increase | –
O=C1C2=C(c3ccccc3)OCCCN2S(=O)(=O)c2ccccc21 [Compound 6a, 7,7-dioxo-1-phenyl-4,5-dihydro-3H-[1,4]oxazepino[4,3-b][1,2]benzothiazin-12-one] | 171 to 172 | – | 89.9 | 0.85 | – | 106 | – | – | – | – | –
O=C1C2=C(c3ccccc3)OCCCCN2S(=O)(=O)c2ccccc21 [Compound 7, 8,8-dioxo-1-phenyl-3,4,5,6-tetrahydro-[1,4]oxazocino[4,3-b][1,2]benzothiazin-13-one] | 198 to 201 | – | 54 | 0.63 | – | 86.1 | higher COX-2/COX-1 selectivity than for meloxicam | stronger COX-2 inhibition effect than the meloxicam | – | – | –
O=C(C1=C(O)c2ccccc2S(=O)(=O)N1)c1ccc(Cl)cc1 [Compound 4c] | – | – | 55.9 | 0.63 | statistically significant increase | 89 | higher COX-2/COX-1 selectivity than for meloxicam | stronger COX-2 inhibition effect than the meloxicam | no cytotoxic effect was observed | – | –
Cc1ccc(C(=O)C2=C(O)c3ccccc3S(=O)(=O)N2)cc1 [Compound 4d] | – | – | 55.3 | 0.62 | – | 89.3 | higher COX-2/COX-1 selectivity than for meloxicam | stronger COX-2 inhibition effect than the meloxicam | – | – | –
COc1ccc(C2=C3C(=O)c4ccccc4S(=O)(=O)N3CCCO2)cc1 [Compound 6e, 1-(4-methoxyphenyl)-7,7-dioxo-4,5-dihydro-3H-[1,4]oxazepino[4,3-b][1,2]benzothiazin-12-one] | 144 to 145 | most pronounced effects | 56.9 | 0.49 | – | 115 | higher COX-2/COX-1 selectivity than for meloxicam; also recorded: most selective inhibitor of COX-2 | stronger COX-2 inhibition effect than the meloxicam | – | – | –
O=C1C2=C(c3ccccc3)OCCN2S(=O)(=O)c2ccccc21 [Compound 5, 6,6-dioxo-1-phenyl-3,4-dihydro-[1,4] oxazino [4,3-b][1,2]benzothiazin-11-one] | 182 to 183 | – | 56.9 | 0.86 | – | 66.1 | – | stronger COX-2 inhibition effect than the meloxicam | – | – | –
Cc1ccc(C2=C3C(=O)c4ccccc4S(=O)(=O)N3CCCO2)cc1 [Compound 6d, 7,7-dioxo-1-(p-tolyl)-4,5-dihydro-3H-[1,4]oxazepino[4,3-b][1,2]benzothiazin-12-one] | 204 to 206 | most pronounced effects | 92.9 | 0.74 | – | 126 | – | – | – | – | –
O=C1C2=C(c3ccc(Br)cc3)OCCCN2S(=O)(=O)c2ccccc21 [Compound 6b, 1-(4-bromophenyl)-7,7-dioxo-4,5-dihydro-3H-[1,4]oxazepino[4,3-b][1,2]benzothiazin-12-one] | – | – | 95.1 | – | – | 86.9 | – | – | – | – | less than 30%
